These results are taken from patent US6548508B2, “Use of PDE V inhibitors for improved fecundity in mammals” (Pfizer, Inc., priority 2000, dated 2003).

Data set [1] has as its system CBA × DBA mice. The experiment in a line: Embryo survival in CBA × DBA mice, i.p. dosing during gestation. Format: in vivo. As to conditions: for % Embryo Survival: assessed day 12. The method, then: Female mice of the CBA strain (obtained from Charles River, UK) were crossed with male mice of the DBA strain (obtained from Charles River, UK) and treated i.p. with 3-ethyl-5-[5-(4-ethylpiperazin-1-ylsulphonyl)-2-n-propoxyphenyl]-2-(pyridin-2-yl)methyl-2,6-dihydro-7H-pyrazolo[4,3-d]pyrimidin-7-one at the rate of either 1 mg/kg or 3′mg/kg on days 1 to 8 of gestation. The mice were euthanised on day 12 of gestation and the numbers of viable and non-viable embryos were determined relative to corresponding control mice.
Female mice of the CBA strain (obtained from Charles River, UK) were crossed with male mice of the DBA strain (obtained from Charles River, UK) and treated i.p. with 3-ethyl-5-[5-(4-ethylpiperazin-1-ylsulphonyl)-2-n-propoxyphenyl]-2-(pyridin-2-yl)methyl-2,6-dihydro-7H-pyrazolo[4,3-d]pyrimidin-7-one at the rate of 1 mg/kg on days 1 to 4 or 4 to 8 of gestation. The mice were euthanised on day 12 of gestation and the numbers of viable and non-viable embryos were determined relative to corresponding control mice.

In data set [2] the test system is pregnant rats. The experiment in a line: Birthweights of rat pups after s.c. dosing of pregnant rats throughout gestation. Format: in vivo. As to conditions: for % increase (birthweights of rat pups): pregnant rats n=10; for embryonic/foetal growth and birthweight (in words, FIG. 1): s.c. daily 0.3, 1 and 5 mg/kg, gestation days 1-21, pregnant rats. As for the experimental part:
To evaluate the effects of cGMP PDE V inhibition on embryonic and foetal growth, 3-ethyl-5-[5-(4-ethylpiperazin-1-ylsulphonyl)-2-n-propoxyphenyl]-2-(pyridin-2-yl)methyl-2,6-dihydro-7H-pyrazolo[4,3-d]pyrimidin- 7-one was administered s.c. daily in an aqueous micelle formulation at the rate of 0.3, 1 and 5 mg/kg to pregnant rats. The results are illustrated in FIG. 1.
A comparative experiment using a similar protocol was carried out using (A) 3-ethyl-5-[5-(4-ethylpiperazin-1-ylsulphonyl)-2-n-propoxyphenyl]-2-(pyridin-2-yl)methyl-2,6-dihydro-7H-pyrazolo[4,3-d]pyrimidin-7-one and the Lilly-ICOS PDE V inhibitor (B) CILIAS/IC-351. The compounds were administered throughout gestation subcutaneously to pregnant rats (n=10) and the birthweights of their corresponding rat pups were measured.

The subject of data set [3] is Mini-pigs. As to the kind of experiment: Model of uterine blood flow and mean arterial blood pressure in mini-pigs. It counts as in vivo. As to conditions: intravenous. From the text: A model of uterine blood flow was established to assess the effects of PDE V inhibition on uterine flow and mean arterial blood pressure (MAP). Mini-pigs weighing approximately 30 kg were modified surgically. As a means of quantifying real time uterine blood flow a Transoinc blood flow probe was placed around either the left or right uterine artery. Catheters were inserted into a external jugular vein and a carotid artery for blood sampling/administration of compound and measurement of mean arterial blood pressure (MAP) respectively. Test compound was administered intravenously either during oestrous or the luteal phase of the reproductive cycle and the effects of PDE V inhibition on uterine blood flow and MAP were measured. The Y-axis for the two left hand bars is uterine blood flow (ml/min.), and for the two right hand bars is MAP (mmHg).

In data set [4] the test system is Friesian cross heifers. The experiment in a line: Intra-vaginal dosing of Friesian cross heifers: plasma progesterone and uterine horn histology. It counts as in vivo, cattle. As to conditions: intra-vaginally twice daily, 30 days, uterine horn cross-sections. As for the experimental part:
Twenty-seven (27) female Friesian cross heifers, approximately 24 months of age were allocated randomly to three treatment groups control, 50 mg and 250 mg of the PDE V inhibitor administered intra-vaginally twice daily. Oestrous was synchronised using two intramuscular injections of PGF2 alpha (Lutalyse™) administered 11 days apart. The PDE V inhibitor was administered intra-vaginally twice daily from day −3 of oestrus until day 6 of the following oestrus (30 days in total). Blood samples were collected daily, plasma was prepared as soon as possible and stored at −20 DEG C. and then analysed for progesterone. At the completion of the study (ie day 6 of the second oestrous period) the cattle were euthanised and the reproductive tract collected. A cross section of the left and right horns of each uterus was collected and stored in 10% Formalin and then analysed histologically.

Data set [5] deals with patients undergoing in vitro fertilisation (IVF) with prior poor endometrial response. The following applies: Hum. Reprod., 2000, 15(4), 806-809; cited from earlier work.
Setting [6] is: 0.3 mg/kg s.c. throughout gestation.
Setting [7] is: 1 mg/kg s.c. throughout gestation.
[8] abbreviates: 5 mg/kg s.c. throughout gestation.

In the case of `CCCOc1ccc(S(=O)(=O)N2CCN(CC)CC2)cc1-c1nc2c(CC)n(Cc3ccccn3)nc2c(=O)[nH]1` [A, 3-ethyl-5-[5-(4-ethylpiperazin-1-ylsulphonyl)-2-n-propoxyphenyl]-2-(pyridin-2-yl)methyl-2,6-dihydro-7H-pyrazolo[4,3-d]pyrimidin-7-one], the “% Embryo Survival” value is 81% in data set [1] (1 mg/kg i.p. daily, days 1-4 of gestation, control 54); 90% in data set [1] (1 mg/kg i.p. daily, days 1-8 of gestation, control 51); 70% in data set [1] (1 mg/kg i.p. daily, days 4-8 of gestation, control 54); 84% in data set [1] (3 mg/kg i.p. daily, days 1-8 of gestation, control 51). The “% increase (birthweights of rat pups)” value was found to be 2% in data set [2] (setting [6]), 6% in data set [2] (setting [7]), 10% in data set [2] (setting [8]) and 12% in data set [2] (10 mg/kg s.c. throughout gestation). The “comparison of effectiveness on birth weights of rat pups” value in data set [2] (A versus B, s.c. throughout gestation) was “more effective than compound B”. Also, in data set [2] (listed as 3-ethyl-5-(5-(4-ethylpiperazin-1-ylsulphonyl)-2-n-propoxyphenyl)-2-(pyridin-2-yl)), the “embryonic/foetal growth and birthweight (in words, FIG. 1)” value is listed as “increases birthweights of rat puts”. In addition, the “mean arterial blood pressure (MAP) (FIG. 2)” value in data set [3] is “No significant effect on mean arterial blood pressure”. In addition, the “uterine blood flow relative to control (FIG. 2)” value in data set [3] was “improves significantly uterine blood relative to control animals”. Besides, the “endometrial epithelial thickness relative to control (FIG. 5)” value in data set [4] was “increases endometrial epithelial thickness relative to control animals”.
For the compound `CN1CC(=O)N2[C@H](c3ccc4c(c3)OCO4)c3[nH]c4ccccc4c3C[C@@H]2C1=O` [B, (6R, 12aR)-2,3,6,7,12,12a-hexahydro-2-methyl-6-(3,4-methylenedioxyphenyl)-pyrazino[2′,1′:6,1]pyrido[3,4-b]indole-1,4-dione, reference compound], the “% increase (birthweights of rat pups)” value in data set [2] (setting [6]) is on record as 0%; in data set [2] (setting [7]) it was 1%; in data set [2] (setting [8]), 5%.
As for `CCCOc1ccc(S(=O)(=O)N2CCN(CC)CC2)cc1-c1nc2c(CC)n(Cc3ccccn3)nc2c(=O)[nH]1` [3-ethyl-5-[5-(4-ethylpiperazin-1-ylsulphonyl)-2-n-propoxyphenyl]-2-(pyridin-2-yl)methyl-2,6-dihydro-7H-pyrazolo[4,3-d]pyrimidin-7-one], the “rate of embryo survival (in words)” value in data set [1] (days 1-4 or 4-8 of gestation) was “improved the rate of embryo survival in both cases”. The “rate of embryo survival and maintenance of pregnancy (in words)” value in data set [1] (days 1 to 8 of gestation, CBA×DBA mice) is “improves significantly the rate of embryo survival and the maintenance of pregnancy”. For the same compound, in data set [2], the “embryonic/foetal growth and birthweight (in words, FIG. 1)” value is “promotes embryonic and/or foetal growth and consequently increases birthweight”.
With `CCCc1nn(C)c2c(=O)[nH]c(-c3cc(S(=O)(=O)N4CCN(C)CC4)ccc3OCC)nc12` [sildenafil, 5-[2-ethoxy-5-(4-methyl-1-piperazinylsulphonyl)phenyl]-1-methyl-3-n-propyl-1,6-dihydro-7H-pyrazolo[4,3-d]pyrimidin-7-one], the “uterine artery blood flow and endometrial development” value in data set [5] is “may be effective for improving uterine artery blood flow and endometrial development”.
